In US20240109914A1, “IMIDAZOTHIAZOLE COMPOUNDS AND ANALOGS THEREOF AND METHODS FOR TREATING NEMATODE INFECTIONS IN PLANTS” (The Governing Council of The University of Toronto, priority 2021, published 2024):
Like-named read-outs stand apart in the source and are kept apart here.

Tests used:
[1] = tested on: M. hapla eggs; experiment: Meloidogyne hapla in vitro egg hatch assay; format: in vivo; conditions: 45 μM; for Number of Hatched Eggs: 8 days at room temperature, about 90 eggs per well, tested once; for Number of Hatched Eggs z-score: 8 days, z-score vs 8 untreated DMSO wells
Procedure: The M. hapla were originally obtained from a soil sample of muck soil from Ste-Clotilde, Quebec, Canada. Using tweezers, egg masses were carefully removed from root material from infested carrot roots. Eggs were liberated from the egg masses using a mild sodium hypochlorite bleaching protocol, whereby egg masses were bleached with a 10% commercial bleach (sodium hypochlorite) solution for 4 minutes with vigorous shaking, and then washed 5 times with deionized water. 50 μL of deionized water was added to each well of two 96-well polystyrene culture plates, and 0.5 μL of chemical (or DMSO alone) was added to each well. Approximately 90 eggs were added to each well in 49.5 ul of deionized water. The plates were sealed with parafilm and incubated for 8 days at room temperature without shaking in a Tupperware box filled with wet paper towels. After the 8-day incubation, the number of hatched eggs was counted for each treatment and for the untreated controls. Each chemical treatment was tested only once. 8 separate untreated DMSO controls were included in the experiment. The z-score for each treatment was calculated using the mean and standard deviation of the untreated DMSO control wells.

[2] = tested on: M. incognita J2 larvae; experiment: Meloidogyne incognita in vitro larval mobility assay; format: in vivo; conditions: 45 μM, 4 days; for Replicate 1 z-score / Replicate 2 z-score: z-score vs untreated DMSO wells; for pest or weed control at 45 µM: Meloidogyne incognita, 96 h
Procedure: M. incognita (Kofoid & White) Chitwood Race 1 (originally isolated in Maryland) was used for all experiments, and was maintained on pepper (Capsicum annuum L.) cv. PA-136 in a greenhouse as previously described^44. Infective J2 juveniles were collected as described in ref. 45. The microwell dose-response experiments were carried out similarly to previously described protocols^44,46. In brief, 50 μL of deionized water was added to the wells of 96-well polystyrene plates and 0.5 μL of test compound (or DMSO alone) was added to each well. Approximately 35 J2s were then added to each well in 49.5 μL of deionized water. The chemicals were tested at 45 μM, and the final concentration of DMSO in each well was 0.5% (v/v). DMSO alone was added to 3 separate wells. The plates were covered with plastic adhesive strips, and the lids of the plates were sealed with parafilm. The plates were incubated at 25° C. without shaking for 4 days. The percent of worms that were immobile (% immobile) was quantified by counting the number of immobile worms after 4 days of incubation, dividing the number of immobile worms by the total number of worms in the well, and then multiplying by 100. Two replicates were performed for each treatment. The z-score for each treatment was calculated using the mean and standard deviation of the untreated DMSO control wells. The average % immobile value was calculated across the two replicates. A test compound was considered most promising if the z-score was greater than 1.645 in both replicates.

[3] = average of the two replicates, read-out: Average % Immobile
[4] = replicate 1, read-out: Replicate 1 % Immobile
[5] = replicate 2, read-out: Replicate 2 % Immobile

| Compound | Number of Hatched Eggs [1] | Number of Hatched Eggs z-score [1] | Number of Hatched Eggs ([1]; listed as 1-84) | Replicate 1 z-score ([2]; replicate 1) | Replicate 2 z-score ([2]; replicate 2) | pest or weed control at 45 µM [2, 3] | pest or weed control at 45 µM [2, 4] | pest or weed control at 45 µM [2, 5] | Number of Hatched Eggs ([1]; listed as 1-48) | Number of Hatched Eggs ([1]; listed as 1-154) | Number of Hatched Eggs ([1]; listed as 1-161) |
| --- | --- | --- | --- | --- | --- | --- | --- | --- | --- | --- | --- |
| COCc1nn2cc(-c3cccc(OC)c3)nc2s1 [I-108] | 4 | [3.31] |  |  |  |  |  |  |  |  |  |
| Clc1ccc(-c2cn3ccsc3n2)s1 [I-84] | 0 | [4.63] | completely inhibited egg hatching | [13.56] | [16.33] | ≥ 75% | 89.1% | 100% |  |  |  |
| Cc1csc2nc(-c3ccc(Cl)s3)cn12 [I-85] | 4 | [3.31] |  |  |  |  |  |  |  |  |  |
| Brc1ccc(-c2cn3c(n2)SCC3)cc1 [I-48] | 0 | [4.63] |  | [15.80] | [5.11] | 69% | 100% | 38% | completely inhibited egg hatching |  |  |
| COc1c(-c2cn3ccsc3n2)ccc2ccccc12 [I-81] | 3 | [3.64] |  |  |  |  |  |  |  |  |  |
| Fc1ccccc1-c1cn2ccsc2n1 [I-89] | 3 | [3.64] |  | [10.62] | [12.27] | ≥ 75% | 74.7% | 77.6% |  |  |  |
| FC(F)(F)Oc1ccc(-c2cn3ccsc3n2)cc1 [I-61] | 1 | [4.30] |  | [8.86] | [6.94] | 57.1% | 66% | 48.1% |  |  |  |
| COCc1nn2cc(-c3ccc(C)c(C)c3)nc2s1 [I-109] | 4 | [3.31] |  |  |  |  |  |  |  |  |  |
| CCOc1ccc(-c2nc3sccn3c2C=O)cc1 [I-154] | 0 | [4.63] |  | [10.40] | [16.33] | ≥ 75% | 73.6% | 100% |  | completely inhibited egg hatching |  |
| O=Cc1c(-c2ccccc2)nc2sccn12 [I-122] | 1 | [4.30] |  | [14.96] | [12.31] | ≥ 75% | 95.9% | 77.8% |  |  |  |
| c1ccc2cc(-c3cn4ccsc4n3)ccc2c1 [I-101] | 2 | [3.97] |  |  |  |  |  |  |  |  |  |
| Cc1cn2cc(-c3ccc(N)cc3)nc2s1 [I-132] | 3 | [3.64] |  |  |  |  |  |  |  |  |  |
| Cc1csc2nc(-c3ccc(OC(F)(F)F)cc3)cn12 [I-62] | 3 | [3.64] |  |  |  |  |  |  |  |  |  |
| Cc1sc2nc(-c3ccc(Cl)s3)cn2c1C [I-86] | 4 | [3.31] |  |  |  |  |  |  |  |  |  |
| CCOc1ccc(-c2cn3ccsc3n2)cc1 [I-153] | 2 | [3.97] |  |  |  |  |  |  |  |  |  |
| FC(F)(F)c1ccc(-c2cn3ccsc3n2)cc1 [I-68] | 4 | [3.31] |  |  |  |  |  |  |  |  |  |
| COc1ccc(-c2nc3scc(C)n3c2C=O)cc1 [I-135] | 4 | [3.31] |  |  |  |  |  |  |  |  |  |
| FC(F)Oc1ccc(-c2cn3ccsc3n2)cc1 [I-63] | 2 | [3.97] |  | [15.80] | [16.33] |  | 100% | 100% |  |  |  |
| Clc1ccc(-c2cn3c(n2)SCC3)cc1 [I-49] | 2 | [3.97] |  | [15.80] | [16.33] |  | 100% | 100% |  |  |  |
| Cc1cn2cc(-c3cccs3)nc2s1 [I-78] | 3 | [3.64] |  |  |  |  |  |  |  |  |  |
| COCc1nn2cc(-c3ccc(Cl)cc3)nc2s1 [I-144] | 4 | [3.31] |  | [4.17] | [6.85] | 45.4% | 43.1% | 47.6% |  |  |  |
| Cc1csc2nc(-c3ccc(OC(F)F)cc3)cn12 [I-64] | 4 | [3.31] |  |  |  |  |  |  |  |  |  |
| c1ccc(-c2nc3sccn3n2)cc1 [I-116] | 2 | [3.97] |  | [4.40] | [2.43] | 33.7% | 44.2% | 23.2% |  |  |  |
| CCOC(=O)c1ccc(-c2cn3ccsc3n2)cc1 [I-72] | 4 | [3.31] |  |  |  |  |  |  |  |  |  |
| O=C(O)c1cn2cc(-c3ccccc3)nc2s1 [I-94] | 4 | [3.31] |  |  |  |  |  |  |  |  |  |
| N#Cc1ccc(-c2cn3ccsc3n2)cc1 [I-87] | 3 | [3.64] |  | [6.98] | [9.68] | 60.1% | 56.9% | 63.3% |  |  |  |
| CC(C)NC(=O)N1CC(=O)N(c2cc(Cl)cc(Cl)c2)C1=O [Iprodione, iprodione, reference compound] | 15 | [−0.33] |  | [−0.02] | [1.71] | 13.8% | 10.9% | 16.7% |  |  |  |
| Cc1csc(-c2cn3cc(C)sc3n2)c1 [I-161] | 0 | [4.63] |  |  |  |  |  |  |  |  | completely inhibited egg hatching |
| Nc1c(-c2ccc(Br)cc2)nc2sccn12 [I-118] | 2 | [3.97] |  |  |  |  |  |  |  |  |  |
